Measured values reported in article PMC12207590, “Substrate Specificity of the Organic Cation Transporters MATE1 and MATE2K and Functional Overlap with OCT1 and OCT2” (Journal of Medicinal Chemistry, 2025).
Read-outs that look alike come from different tables or passages of the source. Where a SMILES comes first, the peptide text is derived from it.

Key:
MATE2K = MATE2K (Homo sapiens, UniProt Q86VL8); experiment: Uptake ratio in MATE2K-overexpressing HEK293 cells vs empty vector (2.5 μM, 1 min, HPLC-MS/MS); format: cell-based
MATE1 = biological target: T1, MATE1 (Homo sapiens, UniProt Q96FL8); experiment: Uptake ratio in MATE1-overexpressing HEK293 cells vs empty vector (2.5 μM, 1 min, HPLC-MS/MS); format: cell-based
T1 sequence (Q96FL8 1-570): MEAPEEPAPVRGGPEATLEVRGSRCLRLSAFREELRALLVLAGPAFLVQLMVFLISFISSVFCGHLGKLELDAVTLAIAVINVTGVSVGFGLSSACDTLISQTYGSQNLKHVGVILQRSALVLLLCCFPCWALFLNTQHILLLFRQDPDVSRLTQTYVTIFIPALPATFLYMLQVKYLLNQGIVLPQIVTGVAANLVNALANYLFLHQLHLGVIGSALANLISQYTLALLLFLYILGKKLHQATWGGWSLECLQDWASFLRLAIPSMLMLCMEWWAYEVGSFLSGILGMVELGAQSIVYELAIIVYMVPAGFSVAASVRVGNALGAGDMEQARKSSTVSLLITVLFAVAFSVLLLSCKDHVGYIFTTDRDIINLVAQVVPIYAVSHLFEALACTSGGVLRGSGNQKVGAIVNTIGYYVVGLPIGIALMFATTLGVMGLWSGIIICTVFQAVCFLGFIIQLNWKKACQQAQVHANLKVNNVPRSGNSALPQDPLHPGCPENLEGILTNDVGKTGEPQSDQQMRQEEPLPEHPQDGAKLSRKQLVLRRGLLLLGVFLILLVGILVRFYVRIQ

hCMEC [1] = experiment: TS DPH hCMEC (Table S2); format: cell-based, human; set-up: scale not given here
hCMEC [2] = experiment: TS MDAI hCMEC (Table S2); format: cell-based, human; set-up: scale not given here
[3] = fold uptake over empty vector, 2.5 μM, 1 min
[4] = mean ratio of uptake in MATE2K-overexpressing HEK293 cells vs empty vector, 2.5 μM, 1 min
[5] = mean ratio of uptake in MATE1-overexpressing HEK293 cells vs empty vector, 2.5 μM, 1 min
[6] = uptake ratio MATE2K-overexpressing vs empty-vector HEK293 cells, 2.5 μM, 1 min, mean
[7] = uptake ratio MATE1-overexpressing vs empty-vector HEK293 cells, 2.5 μM, 1 min, mean

MATE2K, sequence (Q86VL8 1-566 isoform Q86VL8-3): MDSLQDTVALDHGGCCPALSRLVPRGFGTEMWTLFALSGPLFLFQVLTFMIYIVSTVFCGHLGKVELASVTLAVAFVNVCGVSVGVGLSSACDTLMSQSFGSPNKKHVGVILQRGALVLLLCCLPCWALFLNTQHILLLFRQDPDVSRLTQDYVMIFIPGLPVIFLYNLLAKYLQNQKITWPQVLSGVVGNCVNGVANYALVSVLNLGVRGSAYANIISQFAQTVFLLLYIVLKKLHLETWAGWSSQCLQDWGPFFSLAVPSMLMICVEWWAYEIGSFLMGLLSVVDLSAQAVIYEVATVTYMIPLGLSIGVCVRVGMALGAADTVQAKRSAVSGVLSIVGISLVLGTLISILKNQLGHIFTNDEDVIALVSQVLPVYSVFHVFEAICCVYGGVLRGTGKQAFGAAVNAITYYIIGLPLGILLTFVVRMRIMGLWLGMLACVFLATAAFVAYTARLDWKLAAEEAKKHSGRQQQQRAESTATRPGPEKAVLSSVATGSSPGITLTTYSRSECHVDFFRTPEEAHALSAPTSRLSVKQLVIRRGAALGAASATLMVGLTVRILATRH

Structure (SMILES) | MATE2K ratio (MATE2K; [3]) | MATE1 ratio (MATE1; [3]) | TS DPH hCMEC (hCMEC [1]; Table S2) | TS MDAI hCMEC (hCMEC [2]; Table S2) | also measured
CNCC[C@@H](Oc1ccccc1C)c1ccccc1 [Atomoxetine] | 1.18 | 1.12 | 0.23 | 0.25 | MATE2 (uptake ratio) (MATE2K; [4]): 1.18; MATE1 (uptake ratio) (MATE1; [5]): 1.12
COc1ccc2c(c1)N(C[C@H](C)CN(C)C)c1ccccc1S2 [Levomepromazine] | 1.19 | 1.21 | 0.31 | 0.33 | 
C[N+](C)(C)CCO [Choline] | 1.09 | 1.13 | 1.04 | 1.27 | MATE2 (uptake ratio) (MATE2K; [4]): 1.09; MATE1 (uptake ratio) (MATE1; [5]): 1.13
Cc1nc2n(c(=O)c1CCN1CCC(c3noc4cc(F)ccc34)CC1)CCCC2 [Risperidone] |  |  |  |  | MATE2 (MATE2K): 1.37; MATE2K ratio (MATE2K): 1.37; MATE1 (MATE1): 1.07; MATE1 ratio (MATE1): 1.07; TS DPH hCMEC (hCMEC [1]): 0.53; TS MDAI hCMEC (hCMEC [2]): 0.46
C[N+](C)(C)CC(=O)O [Betaine] | 1.07 | 0.80 | 0.98 | 1.09 | MATE2 (uptake ratio) (MATE2K; [4]): 1.07; MATE1 (uptake ratio) (MATE1; [5]): 0.8
Fc1ccc([C@@H]2CCNC[C@H]2COc2ccc3c(c2)OCO3)cc1 [Paroxetine] | 1.79 | 1.92 | 0.13 | 0.07 | 
Cc1nccn1CC1CCc2c(c3ccccc3n2C)C1=O (stereo not drawn) [Ondansetron] | 1.24 | 1.19 | 0.22 | 0.22 | 
CC(C)NCC(O)COc1cccc2[nH]ccc12 (stereo not drawn) [Pindolol] | 1.18 | 1.84 | 0.59 | 0.83 | 
CN(C)CCC=C1c2ccccc2COc2ccccc21 [Doxepin] | 1.32 | 1.34 | 0.13 | 0.10 | 
COc1ccc2c3c1O[C@H]1C[C@@H](O)C=C[C@@]31CCN(C)C2 [Galantamine] |  |  | 0.80 |  | MATE2K ratio (MATE2K): 1.23; MATE1 ratio (MATE1): 1.18; TS MDAI hCMEC (hCMEC [2]): 0.98
COC(=O)[C@H](Cc1ccccc1)NC(=O)[C@@H](N)CC(=O)O [Aspartame] (HELM PEPTIDE1{D.F.[CO[*:1]]}$$$$V2.0) | 1.07 | 1.26 | 1.77 | 1.65 | MATE2 (uptake ratio) (MATE2K; [4]): 1.07; MATE1 (uptake ratio) (MATE1; [5]): 1.26
CN(C)CC(c1ccc(O)cc1)C1(O)CCCCC1 (stereo not drawn) [Desvenlafaxine] | 1.09 | 1.12 | 0.49 | 0.61 | 
NC(=O)c1cnccn1 [Pyrazinamide] | 1.05 | 0.97 | 0.95 | 1.08 | MATE2 (MATE2K; [6]): 1.05; MATE1 (MATE1; [7]): 0.97
CC(Cc1ccc(O)cc1)NCC(O)c1cc(O)cc(O)c1 (stereo not drawn) [Fenoterol] |  |  |  |  | MATE2K ratio (MATE2K): 5.46; MATE2K ratio in this study (MATE2K): 5.46; MATE1 ratio (MATE1): 14.98; MATE1 ratio in this study (MATE1): 14.98; TS DPH hCMEC (hCMEC [1]): 1.47; TS MDAI hCMEC (hCMEC [2]): 1.16
Cc1cccc(C(C)c2cnc[nH]2)c1C (stereo not drawn) [Medetomidine] | 1.21 | 1.11 | 0.79 | 0.96 | 
C=CCN1CC[C@]23c4c5ccc(O)c4O[C@H]2C(=O)CC[C@@]3(O)[C@H]1C5 [Naloxone] | 1.29 | 1.36 | 0.78 | 0.44 | 
NC(=O)C1(N2CCCCC2)CCN(CCCC(=O)c2ccc(F)cc2)CC1 [Pipamperone] | 1.32 | 1.35 | 0.42 | 0.23 | 
C=CCN1C[C@H](C(=O)N(CCCN(C)C)C(=O)NCC)C[C@@H]2c3cccc4[nH]cc(c34)C[C@H]21 [Cabergoline] | 1.13 | 1.20 | 0.38 | 0.44 | MATE2 (uptake ratio) (MATE2K; [4]): 1.13; MATE1 (uptake ratio) (MATE1; [5]): 1.2

Structure (SMILES) | MATE2K ratio (MATE2K; [3]) | MATE1 ratio (MATE1; [3]) | TS DPH hCMEC (hCMEC [1]; Table S2) | TS MDAI hCMEC (hCMEC [2]; Table S2) | also measured
CCOC(=O)[C@]1(c2ccccc2)CCC=C[C@H]1NC [Nortilidine] |  |  |  |  | MATE2K ratio (MATE2K): 1.42; MATE1 ratio (MATE1): 1.19; TS DPH hCMEC (hCMEC [1]): 0.53; TS MDAI hCMEC (hCMEC [2]): 0.52
CC(C)(C)NCC(O)c1cc(Cl)c(N)c(Cl)c1 (stereo not drawn) [Clenbuterol] |  |  |  |  | MATE2 (uptake ratio) (MATE2K): 1.18; MATE2K ratio (MATE2K): 1.18; MATE1 (uptake ratio) (MATE1): 1.11; MATE1 ratio (MATE1): 1.11; TS DPH hCMEC (hCMEC [1]): 0.36; TS MDAI hCMEC (hCMEC [2]): 0.07
Nc1nc(CC(=O)Nc2ccc(CCNC[C@H](O)c3ccccc3)cc2)cs1 [Mirabegron] | 4.76 | 8.19 | 0.90 | 0.75 | 
CCCOC(C(=O)OC1CCN(C)CC1)(c1ccccc1)c1ccccc1 [Propiverine] | 1.07 | 1.20 | 0.33 | 0.44 | MATE2 (MATE2K; [6]): 1.07; MATE1 (MATE1; [7]): 1.2
CC[C@@H](C(N)=O)N1CCCC1=O [Levetiracetam] | 1.28 | 1.19 | 1.17 | 1.19 | 
OC(CCN1CCCCC1)(c1ccccc1)C1CC2C=CC1C2 (stereo not drawn) [Biperiden] | 1.15 | 1.24 | 0.25 | 0.26 | MATE2 (uptake ratio) (MATE2K; [4]): 1.15; MATE1 (uptake ratio) (MATE1; [5]): 1.24
COCCOC(=O)C1=C(C)NC(C)=C(C(=O)OC(C)C)C1c1cccc([N+](=O)[O-])c1 (stereo not drawn) [Nimodipine] | 1.20 | 1.33 | 1.28 | 1.25 | 
NCCc1ccc(Oc2ccc(O)cc2)c(I)c1 [3-Iodothyronamine (T1AM), 3-Iodothyronamine] |  |  |  |  | MATE2 (uptake ratio) (MATE2K): 1.07; MATE2K ratio (MATE2K): 1.07; MATE1 (uptake ratio) (MATE1): 1.36; MATE1 ratio (MATE1): 1.36; TS DPH hCMEC (hCMEC [1]): 0.86; TS MDAI hCMEC (hCMEC [2]): 1.11
COc1cccc2c1C(=O)c1c(O)c3c(c(O)c1C2=O)C[C@@](O)(C(C)=O)C[C@@H]3O[C@H]1C[C@H](N)[C@H](O)[C@H](C)O1 [Daunorubicin] |  |  |  |  | MATE2K ratio (MATE2K): 1.01; MATE1 ratio (MATE1): 1.21; TS DPH hCMEC (hCMEC [1]): 0.86; TS MDAI hCMEC (hCMEC [2]): 1.29
OCCOCCN1CCN(C2=Nc3ccccc3Sc3ccccc32)CC1 [Quetiapine] | 1.28 | 1.10 | 0.49 | 0.45 | MATE2 (MATE2K; [6]): 1.28; MATE1 (MATE1; [7]): 1.1
N[C@@H]1CON=C1O [Cycloserine (D), Cycloserine] | 1.14 | 1.19 | 1.25 | 0.79 | 
Cn1c(=O)[nH]c2ncn(C)c2c1=O [Paraxanthine] | 0.90 | 1.00 | 1.13 | 0.93 | 
C[C@@H](O)[C@H]1C(=O)N2C(C(=O)O)=C(S[C@@H]3CN[C@H](C(=O)N(C)C)C3)[C@H](C)[C@H]12 [Meropenem] | 1.33 | 1.32 | 1.20 | 1.00 | 
CCC1(c2cccc(O)c2)CCCCN(C)C1 (stereo not drawn) [Meptazinol] |  |  |  |  | MATE2K ratio (MATE2K): 1.57; MATE1 ratio (MATE1): 1.21; TS DPH hCMEC (hCMEC [1]): 0.40; TS MDAI hCMEC (hCMEC [2]): 0.41
N[C@@H]1CON=C1O [Cycloserine (L), Cycloserine] | 1.10 | 1.19 | 1.34 | 0.76 | 
CCCNC(C)C(=O)Nc1c(C)csc1C(=O)OC (stereo not drawn) [Articaine] | 1.59 | 1.26 | 0.53 | 0.47 | MATE2 (uptake ratio) (MATE2K; [4]): 1.59; MATE1 (uptake ratio) (MATE1; [5]): 1.26
CC(C)C(=O)Oc1ccc(CO)cc1[C@H](CCN(C(C)C)C(C)C)c1ccccc1 [Fesoterodine] | 1.02 | 1.09 | 0.40 | 0.41 | 
CC12CC3CC(C)(C1)CC(N)(C3)C2 [Memantine] | 1.18 | 1.03 | 0.24 | 0.14 | MATE2K ratio in this study (MATE2K; Table S1, 2.5 μM, 1 min): 1.18; MATE1 ratio in this study (MATE1; Table S1, 2.5 μM, 1 min): 1.03
